Experimental findings from US20050228016A1, “TETRAHYDROQUINOLINES FOR MODULATING THE EXPRESSION OF EXOGENOUS GENES VIA AN ECDYSONE RECEPTOR COMPLEX” (priority 2002, published 2005) are described below.

Data set [1] deals with T1, Gal4DBD/AaEcR (DEF) (Aedes aegypti, UniProt P49880).
T1 construct: The wildtype D, E, and F domains from mosquito Aedes aegypti EcR; expressed in transfected cells; host or cells: 3T3 cells
The data set is described as follows: cell-based. Format: cell-based. The following applies: 33 μM; 3T3 cells; 48 h; average of two wells. The method, boiled down:
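Mouse 3T3 cells transiently co-transfected with Gal4DBD/AaEcR (DEF) and pFRLuc (5× GAL4 response element, firefly luciferase reporter). Ligand added in serum medium 4 h after transfection; single-dose testing at 33 μM.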

In data set [2] the target is T2, Bombyx mori EcR (VP16-BmEcR, CVBE) (Bombyx mori, UniProt P49881).
T2 construct: expressed in transfected cells
T2 sequence (P49881 86-606): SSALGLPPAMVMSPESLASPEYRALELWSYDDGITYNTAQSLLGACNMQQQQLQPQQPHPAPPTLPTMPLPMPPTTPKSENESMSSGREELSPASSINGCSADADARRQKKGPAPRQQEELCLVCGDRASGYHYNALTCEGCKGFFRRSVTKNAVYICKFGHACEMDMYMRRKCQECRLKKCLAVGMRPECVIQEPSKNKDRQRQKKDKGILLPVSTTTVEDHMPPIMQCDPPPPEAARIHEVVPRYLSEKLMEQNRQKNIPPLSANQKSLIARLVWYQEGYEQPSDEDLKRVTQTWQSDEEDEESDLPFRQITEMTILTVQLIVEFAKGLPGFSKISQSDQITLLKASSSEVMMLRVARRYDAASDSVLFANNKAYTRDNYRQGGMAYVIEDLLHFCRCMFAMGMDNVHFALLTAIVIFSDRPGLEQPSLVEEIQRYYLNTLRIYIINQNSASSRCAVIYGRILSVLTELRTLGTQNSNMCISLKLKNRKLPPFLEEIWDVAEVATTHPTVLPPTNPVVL
The data set is described as follows: Z3 assay (HEK-293 clone Z3 with CVBE and 6x EcRE LacZ, β-galactosidase reporter). Type of data set: cell-based. The following applies: 48 h, average of two wells. The source says:
Dr. F. Gage provided a population of stably transformed cells containing CVBE and 6× EcRE as described in (Suhr et. al. 1998). Human 293 kidney cells, also referred to as HEK-293 cells, were sequentially infected with retroviral vectors encoding first the switch construct CVBE, and subsequently the reporter construct 6× EcRE Lac Z. The switch construct contained the coding sequence for amino acids 26-546 from Bombyx nori EcR (BE) (Iatrou) inserted in frame and downstream of the VP16 transactivation domain (VBE). A synthetic ATG start codon was placed under the control of cytomegalovirus (CVBE) immediate early promoter and flanked by long terminal repeats (LTR). The reporter-construct contained six copies of the ecdysone response element (EcRE) binding site placed upstream of LacZ and flanked on both sides with LTR sequences (6× EcRE).
Dilution cloning was used to isolate individual clones. Clones were selected using 450 μg/ml G418 and 100 ng/ml puromycin. Individual clones were evaluated based on their response in the presence and absence of test ligands.
Human 293 kidney cells stably transformed with CVBE and 6× EcRE lack were maintained in Minimum Essential Medium (Mediates, 10-010-CV) containing 10%.FBS (Life Technologies, 26140-087),[…] G418 (Mediates, 30-234-CR), and […] (Sigma, P-7255), at 37° C. in an atmosphere containing 5% CO2 and were subculture when they reached 75% confluence.
Z3 cells were seeded into 96-well tissue culture plates at a concentration of 2.5×10^3 cells per well and incubated at 37° C. in 5% CO2 for twenty-four hours. Stock solutions of ligands were prepared in DMSO. Ligand stock solutions were diluted 100.fold in media and 50 μL of this diluted ligand solution (33 μM) was added to cells.
Reporter gene expression was evaluated 48 hours after treatment of cells, β-galactosidase activity was measured using Gal Screen™ bioluminescent reporter gene assay system from Tropix (GSY1000).
Flanking both constructs are long terminal repeats, G418 and puromycin are selectable markers, CMV is the cytomegalovirus promoter, VBE is coding sequence for amino acids 26-546 from Bombyx mori EcR inserted downstream of the VP16 transactivation domain, 6× EcRE is six copies of the ecdysone response element, lacZ encodes for the reporter enzyme β-galactosidase.

T1 sequence (P28704 286-520 A311G/G315S/G445S/I449V): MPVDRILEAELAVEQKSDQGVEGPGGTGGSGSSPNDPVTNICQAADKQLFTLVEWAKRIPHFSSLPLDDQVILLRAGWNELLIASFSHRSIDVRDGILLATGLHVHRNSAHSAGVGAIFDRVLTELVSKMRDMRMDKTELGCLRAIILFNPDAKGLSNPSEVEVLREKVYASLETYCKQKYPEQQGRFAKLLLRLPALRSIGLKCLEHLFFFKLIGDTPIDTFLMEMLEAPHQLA
T1 sequence (P49880 405-776): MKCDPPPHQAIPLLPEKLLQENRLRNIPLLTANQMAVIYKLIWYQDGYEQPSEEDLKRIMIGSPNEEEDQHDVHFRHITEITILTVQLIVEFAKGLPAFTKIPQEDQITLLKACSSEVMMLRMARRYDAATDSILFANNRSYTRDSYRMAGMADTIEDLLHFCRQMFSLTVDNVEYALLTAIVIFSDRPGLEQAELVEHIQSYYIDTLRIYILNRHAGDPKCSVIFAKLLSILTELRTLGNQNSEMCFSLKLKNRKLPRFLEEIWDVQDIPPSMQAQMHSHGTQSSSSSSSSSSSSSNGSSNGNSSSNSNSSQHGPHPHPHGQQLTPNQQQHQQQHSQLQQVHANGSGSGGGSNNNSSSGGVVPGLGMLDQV

Consider `CC1CC(Nc2ccc(F)cc2)c2cc(F)ccc2N1C(=O)c1ccccc1F` (centres unmarked) [Compound I-55], for which the “Fold Induction Average, AA_3T3V1 Assay 33 μM” value in data set [1] turned out to be 78 fold. Moreover, the “Fold Induction Average, Z3V1 Assay 33 μM” value in data set [2] came to 10 fold.
In the same order, the values of `Cc1ccccc1C(=O)N1c2ccc(F)cc2C(Nc2ccc(F)cc2)CC1C` (centres unmarked) [Compound I-56] are 158 fold and 8 fold.
With `COc1ccccc1C(=O)N1c2ccc(F)cc2C(Nc2ccc(F)cc2)CC1C` (centres unmarked) [Compound I-57], the “Fold Induction Average, AA_3T3V1 Assay 33 μM” value in data set [1] is on record as 4 fold. Further, the “Fold Induction Average, Z3V1 Assay 33 μM” value in data set [2] was 1 fold.
The matching figures for `CC1CC(Nc2ccccc2)c2ccccc2N1C(=O)c1ccc(Cl)cc1` (centres unmarked) [Compound I-61]: 216 fold and 4 fold.
In the same order, the values of `CCc1ccc(C(=O)N2c3ccccc3C(Nc3ccccc3)CC2C)cc1` (centres unmarked) [Compound I-62] are 744 fold and 43 fold.
In the same order, the values of `Cc1ccc(NC2CC(C)N(C(=O)c3ccc(Cl)cc3)c3ccc(C)cc32)cc1` (centres unmarked) [Compound I-63] are 812 fold and 1 fold.
For `COc1ccc(C(=O)N2c3ccccc3C(Nc3ccccc3)CC2C)cc1` (centres unmarked) [Compound I-95], the “Fold Induction Average, AA_3T3V1 Assay 33 μM” value in data set [1] came to 11 fold. Also, in data set [2], the “Fold Induction Average, Z3V1 Assay 33 μM” value is reported as 1 fold.
For `Cc1ccc(C(=O)N2c3ccccc3C(Nc3ccccc3)CC2C)cc1` (centres unmarked) [Compound I-96], the “Fold Induction Average, AA_3T3V1 Assay 33 μM” value in data set [1] is on record as 121 fold. In data set [2], the “Fold Induction Average, Z3V1 Assay 33 μM” value was 1 fold.
For `CC1CC(Nc2ccccc2)c2ccccc2N1C(=O)c1ccccc1` (centres unmarked) [Compound I-97], the “Fold Induction Average, AA_3T3V1 Assay 33 μM” value in data set [1] worked out at 37 fold. Besides, the “Fold Induction Average, Z3V1 Assay 33 μM” value in data set [2] is 1 fold.
In the same order, the values of `COc1ccc(C(=O)N2c3ccc(F)cc3C(Nc3ccc(F)cc3)CC2C)cc1` (centres unmarked) [Compound I-101] are 561 fold and 2 fold.
In the same order, the values of `Cc1ccc(C(=O)N2c3ccc(F)cc3C(Nc3ccc(F)cc3)CC2C)cc1` (centres unmarked) [Compound I-102] are 601 fold and 3 fold.
In the same order, the values of `CC1CC(Nc2ccccc2)c2ccccc2N1C(=O)c1ccc(Cl)nc1` (centres unmarked) [Compound I-103] are 341 fold and 4 fold.
`CC1CC(Nc2ccccc2)c2ccccc2N1C(=O)c1ccc(Cl)c(F)c1` (centres unmarked) [Compound I-105]: in data set [1], the “Fold Induction Average, AA_3T3V1 Assay 33 μM” value was 369 fold. Besides, the “Fold Induction Average, Z3V1 Assay 33 μM” value in data set [2] came out at 30 fold.
The matching figures for `CC1CC(Nc2ccccc2)c2ccccc2N1C(=O)c1ccnc(Cl)c1` (centres unmarked) [Compound I-106]: 1053 fold and 83 fold.
In the same order, the values of `CCc1c(OC)cccc1C(=O)N1c2ccccc2C(Nc2ccccc2)CC1C` (centres unmarked) [Compound I-107] are 636 fold and 6 fold.
In the same order, the values of `Cc1ccc(NC2CC(C)N(C(=O)c3ccno3)c3ccc(C)cc32)cc1` (centres unmarked) [Compound I-109] are 33 fold and 1 fold.
`Cc1ccc(NC2CC(C)N(C(=O)c3ccc(Cl)c(F)c3)c3ccc(C)cc32)cc1` (centres unmarked) [Compound I-110]: the “Fold Induction Average, AA_3T3V1 Assay 33 μM” value in data set [1] stood at 782 fold. Also, in data set [2], the “Fold Induction Average, Z3V1 Assay 33 μM” value is on record as 2 fold.
The matching figures for `Cc1ccc(NC2CC(C)N(C(=O)c3ccnc(Cl)c3)c3ccc(C)cc32)cc1` (centres unmarked) [Compound I-111]: 527 fold and 16 fold.
The matching figures for `CCCC(=O)N1c2ccccc2C(N(C(=O)c2ccccc2)c2ccc(F)cc2)CC1C` (centres unmarked) [Compound I-126]: 1 fold and 1 fold.
The matching figures for `COc1cccc(NC2CC(C)N(C(=O)c3ccccc3)c3ccccc32)c1` (centres unmarked) [Compound I-137]: 64 fold and 1 fold.
For the compound `COc1cccc(C(=O)N(c2ccccc2)C2CC(C)N(C(C)=O)c3ccccc32)c1` (centres unmarked) [Compound I-142], in data set [1], the “Fold Induction Average, AA_3T3V1 Assay 33 μM” value stood at 1 fold. In addition, the “Fold Induction Average, Z3V1 Assay 33 μM” value in data set [2] worked out at 1 fold.
Turning to `Cc1ccc(C(=O)N2c3ccccc3C(N(C(=O)c3ccc(F)cc3)c3ccccc3)CC2C)cc1` (centres unmarked) [Compound I-143], the “Fold Induction Average, AA_3T3V1 Assay 33 μM” value in data set [1] is given as 27 fold. The “Fold Induction Average, Z3V1 Assay 33 μM” value in data set [2] was 1 fold.
In the same order, the values of `CC1CC(Nc2ccccc2)c2ccccc2N1C(=O)COc1ccc(F)cc1` (centres unmarked) [Compound I-159] are 12 fold and 1 fold.
In the same order, the values of `CC1CC(Nc2ccccc2)c2ccccc2N1C(=O)c1ccc(Cl)c(Cl)c1` (centres unmarked) [Compound I-165] are 1 fold and 1 fold.
In the same order, the values of `CC1CC(Nc2ccccc2)c2ccccc2N1C(=O)c1ccc(I)cc1` (centres unmarked) [Compound I-168] are 401 fold and 3 fold.
As for `CC1CC(Nc2ccccc2)c2ccccc2N1C(=O)CCC1CCCCC1` (centres unmarked) [Compound I-170], the “Fold Induction Average, AA_3T3V1 Assay 33 μM” value in data set [1] turned out to be 2 fold. The “Fold Induction Average, Z3V1 Assay 33 μM” value in data set [2] came to 1 fold.
The matching figures for `CCOC(=O)C(=O)N1c2ccccc2C(Nc2ccccc2)CC1C` (centres unmarked) [Compound I-171]: 1 fold and 1 fold.
Consider `CC1CC(Nc2ccccc2)c2ccccc2N1C(=O)c1ccc(NS(C)(=O)=O)cc1` (centres unmarked) [Compound I-175], for which the “Fold Induction Average, AA_3T3V1 Assay 33 μM” value in data set [1] was 1 fold. In addition, in data set [2], the “Fold Induction Average, Z3V1 Assay 33 μM” value is given as 5 fold.
The matching figures for `CC(C)C(=O)N1c2ccccc2C(N(C(=O)c2ccccc2)c2ccc([N+](=O)[O-])cc2)CC1C` (centres unmarked) [Compound I-178]: 1 fold and 1 fold.
Consider `CCC(=O)N1c2ccccc2C(N(C(=O)c2ccc([N+](=O)[O-])cc2)c2ccccc2)CC1C` (centres unmarked) [Compound I-183], for which, in data set [1], the “Fold Induction Average, AA_3T3V1 Assay 33 μM” value amounted to 1 fold. Further, in data set [2], the “Fold Induction Average, Z3V1 Assay 33 μM” value was determined as 2 fold.
In the same order, the values of `Cc1ccc(C(=O)N2c3ccc(F)cc3C(N(C(=O)c3ccc(C)c(F)c3)c3ccc(F)cc3)CC2C)cc1F` (centres unmarked) [Compound I-197] are 686 fold and 1 fold.
